Tests used:
[1] = target: T1, rat vas/human bladder P2X cDNA clone (Homo sapiens, UniProt P51575); assay: functional properties of cloned P2X receptors (electrical recordings): bladder; type: cell-based
T1 construct: expressed in transfected cells; host or cells: HEK293 cells (oocytes are also named for the functional characterisation)
T1 sequence (P51575 1-399): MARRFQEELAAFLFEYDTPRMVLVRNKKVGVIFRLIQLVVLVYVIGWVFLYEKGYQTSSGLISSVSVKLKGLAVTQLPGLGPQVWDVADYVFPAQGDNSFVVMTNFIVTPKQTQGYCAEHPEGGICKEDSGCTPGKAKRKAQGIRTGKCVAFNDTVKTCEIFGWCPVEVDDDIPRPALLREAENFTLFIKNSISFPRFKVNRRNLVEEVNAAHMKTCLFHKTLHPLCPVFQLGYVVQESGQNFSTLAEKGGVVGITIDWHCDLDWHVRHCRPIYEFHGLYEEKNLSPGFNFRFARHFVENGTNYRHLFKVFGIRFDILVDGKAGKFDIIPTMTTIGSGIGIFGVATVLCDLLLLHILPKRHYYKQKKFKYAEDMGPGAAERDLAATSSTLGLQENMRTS
Protocol: DNA concentration used was 1 mg/2 ml medium placed into a 35 mm petri dish containing four 11 mm diameter coverslips on which HEK cells were placed at 10,000 cells per coverslip. […] Currents were recorded from HEK 293 cells using whole-cell recording methods and the AXOPATCH™ 200 amplifier (Axon Instruments); patch pipettes (5 M.OMEGA.) contained (mM) Cs or K aspartate 140, NaCl 5, EGTA 11, HEPES 5. […] All recordings performed at room temperature. Data acquisition and analysis were performed using pCLAMP™ and AXOGRAPH™ software (Axon Instruments). […] ATP was applied by U-tube typically for 1 s; data was sampled at 5 kHz in 2 s segments beginning 300 ms prior to onset of agonist (ATP) application and filtered at 1 kHz.

[2] = target: T2, rat superior cervical ganglion P2X receptor (clone 3) (Rattus norvegicus, UniProt P51577); assay: functional properties of cloned P2X receptors (electrical recordings): clone 3; type: cell-based
T2 construct: The insert appeared to be a full length cDNA; expressed in transfected cells; host or cells: HEK293 cells transfected with pcDNA3 construct p464 (also oocytes injected with in vitro transcribed RNA)
T2 sequence (P51577 1-388): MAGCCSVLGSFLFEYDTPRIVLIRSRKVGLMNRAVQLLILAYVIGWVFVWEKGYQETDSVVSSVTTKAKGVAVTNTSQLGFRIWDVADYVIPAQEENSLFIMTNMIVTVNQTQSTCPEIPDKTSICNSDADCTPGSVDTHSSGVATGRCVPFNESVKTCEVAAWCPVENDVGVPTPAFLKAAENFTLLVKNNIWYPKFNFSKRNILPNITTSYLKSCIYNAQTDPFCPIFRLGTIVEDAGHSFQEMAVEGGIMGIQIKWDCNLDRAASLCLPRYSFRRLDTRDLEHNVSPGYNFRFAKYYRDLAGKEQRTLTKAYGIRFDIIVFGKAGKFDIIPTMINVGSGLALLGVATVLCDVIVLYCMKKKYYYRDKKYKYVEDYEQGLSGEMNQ

P2X-purinoceptor = details: cited from earlier work
[3] = target: T3, rat vas deferens P2X receptor (Rattus norvegicus, UniProt P47824); assay: electrophysiological recording in CHO cells stably transfected with rat vas deferens P2X receptor; type: cell-based; details: up to 30 μM
T3 construct: cRNA in Xenopus oocytes; stably transfected CHO cells
T3 sequence (P47824 1-399): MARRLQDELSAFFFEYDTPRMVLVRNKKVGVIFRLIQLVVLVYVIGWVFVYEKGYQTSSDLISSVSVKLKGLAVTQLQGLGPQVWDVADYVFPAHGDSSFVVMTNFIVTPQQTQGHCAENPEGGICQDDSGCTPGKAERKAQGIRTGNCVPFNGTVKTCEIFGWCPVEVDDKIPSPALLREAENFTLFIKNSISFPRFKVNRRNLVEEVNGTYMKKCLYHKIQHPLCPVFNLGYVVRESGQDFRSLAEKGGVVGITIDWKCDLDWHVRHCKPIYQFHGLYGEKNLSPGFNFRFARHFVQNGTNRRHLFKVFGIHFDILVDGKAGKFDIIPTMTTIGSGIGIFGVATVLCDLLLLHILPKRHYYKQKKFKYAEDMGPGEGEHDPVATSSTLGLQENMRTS
Source text: (§1) CHO cells were stably transfected by a method used for other ion channels (Claudio, Meth. Enzymol. 207 391-408 (1992)). Transfection was confirmed by a) electro-physiological recording and b) radioligand binding. […] [^3 H]αβmethyleneATP binding was more than 600 cpm per million transfected cells with less than 80 cpm nonspecific binding.

[4] = system: non-transfected CHO cells; assay: electrophysiological recording in non-transfected CHO cells (control); type: cell-based, chinese hamster; details: up to 30 μM; 45 of 45 cells
Source text: as §1

Nc1ncnc2c1ncn2[C@@H]1O[C@H](COP(=O)([O-])OP(=O)([O-])OP(=O)([O-])[O-])[C@@H](O)[C@H]1O.[Mg+2].[Mg+2] [ATP, adenosine 5'-triphosphate magnesium salt]
EC50 [1]: 0.7 µM
EC50 [2]: 11 µM
decline of currents (desensitisation) during application ([2]; applications of several seconds): little or no decline during applications of several seconds
agonist potency order in whole tissue studies (P2X-purinoceptor): α,β,-meATP >>2MeSATP≥ATP
rapidly desensitising inward currents, CHO cells responding [3]: rapidly desensitising inward currents in 14 of 14 CHO cells
effect in non-transfected cells [4]: no effect in 45 of 45 non-transfected cells

— patent US5985603A, “P2x receptor DNA and protein sequence” (Glaxo Group Limited, priority 1994, dated 1999)
